Measured values: patent publication US20070167492A1, “Molluscicidal agents” (priority 2003, published 2007)
Entries after “also recorded” stand apart in the source; their conditions may differ.

Assays:
Type in all cases: in vivo
[1] = system: Winter wheat (Kampa race) seeds; experiment: Seed germination test of treated winter wheat seeds (rolled in paper); conditions: 3x50 seeds, 6 days at 22° C.
Summary of the method: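 Seeds were disinfected with fludioxonil-containing Beret Gold (2 ml per kg seed) and coated with Sepiret® for formulations unsuitable for coating. Germination of 3×50 seeds rolled in paper was scored after 6 days at continuous 22° C. under a 16 hours light regime.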

[2] = system: Deroceras reticulatum (grey field slug); experiment: Example 1: pot test, treated winter wheat seed with 5 adult slugs per pot, 14 days
Summary of the method: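 Fludioxonil-disinfected winter wheat seed (Kampa, 40 per pot) sown on quartz sand over potting soil with 5 adult slugs per pot; ±15° C., ±90% RH, 12 h light/12 h dark, 4 replicates. Damaged seeds, plants, dead slugs and fecal pellets counted up to day 14; F-tests and Student-tests.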

[3] = system: Deroceras reticulatum (grey field slug); experiment: Example 2: pot re-test, treated winter wheat seed with 5 adult slugs per pot, 7 days; conditions: for number of damaged seeds relative to the untreated seed: two days after the start
Source text: Based on the results of the experiment described in Example 1, a selection was made from the various test numbers of that experiment for re-testing, partly to confirm the conclusions of that experiment and to test the unexpected outcome of some test compounds.
The selection of test numbers (Test No.) used in the present experiment relative to those of the experiment described in Example 1 is shown in Table 7.
The same seeds as described in Example 1 were sown in earthenware pots with an internal diameter of 20 cm and a height of 18 cm, filled with 7 cm of potting soil (Trio BV, Weesp, The Netherlands) and with a top 2 cm of white quartz sand. A total of 40 winter wheat seeds was placed in each pot, in a pattern of concentric circles on top of the quartz sand, the germ of the seed facing upwards. To each pot a total of 5 adult specimens of the test slug Deroceras reticulatum (grey field slug) were added. The pots were incubated at 18-19° C. with a relative humidity of ±95% and light regime of ±18 hours light/6 hours dark, without artificial lighting. The pots were not irrigated overhead. In total, 4 parallel tests were performed for each test.
The number of damaged seeds was, the number of plants present (germinated and not eaten or damaged by the slugs), the number of dead slugs and of the number of fecal pellets were determined after 2, 3 and 7 days following the addition of the slugs.
The data were statistically analysed by using F-tests (α=0.05) and pair-wise Student-tests.

[4] = system: Grey field slug (Deroceras reticulatum); experiment: Example 3:  trial oilseed rape, treated seed, 5 slugs per plot; conditions: doses of 10.4 and 20.8 ml per kg seed
Source text: The compounds and doses used are described in table 12.
Trial Data Cultivaton • Location: Glasshouse • Plots consist of: One earthenware pot, diameter 20 cm, height 18 cm • Trial medium: 7 cm of peat based potting compost, covered with silversand • Cultivar: Talent (00) • Thousand seed weight: 7.0 g • Seed treatments: Carried out on 12 Mar. 2004. The fungicide treatment was 4 g a.i. TMTD per kg seed • Sowing date: 9 Apr. 2004 • Number of seeds per pot: 40 • Experimental layout: Randomised block design • Number of replicates: 4 (I to IV), Annex 1 • Temperature during cultivation: 16 hours 20° C., 8 hours 15° C. Trial • Location: Laboratory • Starting date: 20 Apr. 2004 • Slug species: Grey field slug (Deroceras reticulatum). The slugs were collected from the field and only healthy individuals were used. • Number of slugs per plot: 5 • Temperature during trial: ±18° C. • Relative humidity during trial: ±90% Assessment
After starting the trial, assessments were made on 21, 23 and 26 April. At each assessment, the total numbers of plants, the numbers of attacked plants, the numbers of dead slugs and the numbers of fecal pellets were counted. […] In addition, the numbers of normal plants were counted on 23 and 26 April and the fresh aboveground plant weight per plot was assessed on 27 April. […]
Data were analysed using analysis of variance and Student's t-distribution with the PPAIR procedure.

[5] = 2 ml formulated per kg seed, 2 days after sowing
[6] = 2 ml formulated per kg seed, 3 days after sowing
[7] = 2 ml formulated per kg seed, 7 days after sowing
[8] = 2 ml formulated per kg seed, 10 days after sowing
[9] = 2 ml formulated per kg seed, 14 days after sowing
[10] = 10 ml formulated per kg seed, 2 days after sowing
[11] = 10 ml formulated per kg seed, 3 days after sowing
[12] = 10 ml formulated per kg seed, 7 days after sowing
[13] = 10 ml formulated per kg seed, 10 days after sowing
[14] = 10 ml formulated per kg seed, 14 days after sowing
[15] = Example 2, 2 ml formulated per kg seed, 2 days after sowing
[16] = Example 2, 2 ml formulated per kg seed, 3 days after sowing
[17] = Example 2, 2 ml formulated per kg seed, 7 days after sowing
[18] = Example 2, after 2, 3 and 7 days
[19] = Example 2, 10 ml formulated per kg seed, 2 days after sowing
[20] = Example 2, 10 ml formulated per kg seed, 3 days after sowing
[21] = Example 2, 10 ml formulated per kg seed, 7 days after sowing

N#CN=C1SCCN1Cc1ccc(Cl)nc1 [thiacloprid, N-[3-(6-chloropyridin-3-ylmethyl)thiazolidin-2-ylidene]cyanamide]
Percentage germinated ([1]; 2 ml formulated per kg seed): 73% | Percentage germinated ([1]; 10 ml formulated per kg seed): 58% | number of utilizable plants after 14 days ([2]; 2 ml formulated per kg seed): 28.8 | percentage of damaged seeds after 14 days ([2]; 2 ml formulated per kg seed): 13% | Mean number of damaged seeds per pot [2, 5]: 1.3 | Mean number of dead slugs per pot [2, 5]: 0 | Mean number fecal pellets per pot [2, 6]: 14 | Mean number of damaged seeds per pot [2, 6]: 3.3 | Mean number of dead slugs per pot [2, 6]: 0.3 | Mean number of plants present per pot [2, 6]: 6.3 | Mean number fecal pellets per pot [2, 7]: 23 | Mean number of damaged seeds per pot [2, 7]: 7.5 | Mean number of dead slugs per pot [2, 7]: 0.5 | Mean number of plants present per pot [2, 7]: 27.8 | Mean number fecal pellets per pot [2, 8]: 17 | Mean number of damaged seeds per pot [2, 8]: 5.5 | Mean number of dead slugs per pot [2, 8]: 0.5 | Mean number of plants present per pot [2, 8]: 28.5 | Mean number fecal pellets per pot [2, 9]: 21 | Mean number of damaged seeds per pot [2, 9]: 5.3 | Mean number of dead slugs per pot [2, 9]: 0.8 | Mean number of plants present per pot [2, 9]: 29.3 | number of utilizable plants after 14 days ([2]; 10 ml formulated per kg seed): 34.5 | percentage of damaged seeds after 14 days ([2]; 10 ml formulated per kg seed): 8% | Mean number of damaged seeds per pot [2, 10]: 0.5 | Mean number of dead slugs per pot [2, 10]: 0 | Mean number fecal pellets per pot [2, 11]: 5 | Mean number of damaged seeds per pot [2, 11]: 1.5 | Mean number of dead slugs per pot [2, 11]: 0 | Mean number of plants present per pot [2, 11]: 10.5 | Mean number fecal pellets per pot [2, 12]: 8 | Mean number of damaged seeds per pot [2, 12]: 3.3 | Mean number of dead slugs per pot [2, 12]: 0 | Mean number of plants present per pot [2, 12]: 32.8 | Mean number fecal pellets per pot [2, 13]: 7 | Mean number of damaged seeds per pot [2, 13]: 3.3 | Mean number of dead slugs per pot [2, 13]: 0.3 | Mean number of plants present per pot [2, 13]: 34.0 | Mean number fecal pellets per pot [2, 14]: 9 | Mean number of damaged seeds per pot [2, 14]: 3.3 | Mean number of dead slugs per pot [2, 14]: 0.3 | Mean number of plants present per pot [2, 14]: 34.8 | damaged seeds relative to untreated control seed ([2]; Example 1, 2 or 10 ml per kg of seed, at each observation (after 2 days only 10 ml)): less damaged seeds than the untreated control seed | protection of the wheat against slugs (conclusion) ([2]; Example 1, already at a low dose of 2 ml): good protection of the wheat against slugs | fecal pellets relative to the untreated seed ([2]; Example 1, at each dosage and at each observation): large and significant reduction in the number of fecal pellets; also recorded: significantly less fecal pellets | plants present and utilizable plants relative to the untreated seed ([2]; Example 1, both 2 and 10 ml per kg of seed, after 7 days): significantly more plants present and utilizable plants | comparison with imidacloprid (fecal pellets, damaged seeds, plants present, utilizable plants) ([2]; Example 1, two weeks after the start): scored surprisingly better than the related compound imidacloprid | result of seed treatment against slugs (conclusion) ([3]; Example 2): good results | percentage of damaged seeds after 7 days ([3]; Example 2, 2 ml formulated per kg seed): 14% | Mean number of damaged seeds per pot [3, 15]: 3.5 | Mean number of dead slugs per pot [3, 15]: 0 | Mean number of damaged seeds per pot [3, 16]: 4.5 | Mean number of dead slugs per pot [3, 16]: 0 | Mean number of damaged seeds per pot [3, 17]: 5.8 | Mean number of dead slugs per pot [3, 17]: 0.3 | number of fecal pellets per pot relative to the untreated control [3, 18]: significant reduction in the number of fecal pellets | plants present relative to the untreated seed [3, 18]: significantly more plants present | number of damaged seeds relative to the untreated seed ([3]; Example 2): significant reduction in the number of damaged seeds | Mean number of fecal pellets per pot ([3]; dosage 2 ml, 2 days): 8 | Mean number of plants present per pot ([3]; dosage 2 ml, 2 days): 12.5 | Mean number of fecal pellets per pot ([3]; dosage 2 ml, 3 days): 14 | Mean number of plants present per pot ([3]; dosage 2 ml, 3 days): 24.0 | Mean number of fecal pellets per pot ([3]; dosage 2 ml, 7 days): 17 | Mean number of plants present per pot ([3]; dosage 2 ml, 7 days): 29.5 | number of utilizable plants after 7 days ([3]; dosage 2 ml, 7 days): 23.5 | damage (conclusion) [4]: decreases the damage

abamectine
Percentage germinated ([1]; 2 ml formulated per kg seed): 47% | Percentage germinated ([1]; 10 ml formulated per kg seed): 2% | number of utilizable plants after 14 days ([2]; 2 ml formulated per kg seed): 0.8 | percentage of damaged seeds after 14 days ([2]; 2 ml formulated per kg seed): 93% | Mean number of damaged seeds per pot [2, 5]: 3.8 | Mean number of dead slugs per pot [2, 5]: 0 | Mean number fecal pellets per pot [2, 6]: 43 | Mean number of damaged seeds per pot [2, 6]: 14.3 | Mean number of dead slugs per pot [2, 6]: 0 | Mean number of plants present per pot [2, 6]: 6.3 | Mean number fecal pellets per pot [2, 7]: 119 | Mean number of damaged seeds per pot [2, 7]: 35.8 | Mean number of dead slugs per pot [2, 7]: 0 | Mean number of plants present per pot [2, 7]: 0 | Mean number fecal pellets per pot [2, 8]: 133 | Mean number of damaged seeds per pot [2, 8]: 35.5 | Mean number of dead slugs per pot [2, 8]: 0.3 | Mean number of plants present per pot [2, 8]: 0.8 | Mean number fecal pellets per pot [2, 9]: 140 | Mean number of damaged seeds per pot [2, 9]: 37.0 | Mean number of dead slugs per pot [2, 9]: 0.3 | Mean number of plants present per pot [2, 9]: 0.8 | number of utilizable plants after 14 days ([2]; 10 ml formulated per kg seed): 9.0 | percentage of damaged seeds after 14 days ([2]; 10 ml formulated per kg seed): 61% | Mean number of damaged seeds per pot [2, 10]: 1.5 | Mean number of dead slugs per pot [2, 10]: 0.3 | Mean number fecal pellets per pot [2, 11]: 15 | Mean number of damaged seeds per pot [2, 11]: 3.3 | Mean number of dead slugs per pot [2, 11]: 0.5 | Mean number of plants present per pot [2, 11]: 3.8 | Mean number fecal pellets per pot [2, 12]: 89 | Mean number of damaged seeds per pot [2, 12]: 21.0 | Mean number of dead slugs per pot [2, 12]: 1.3 | Mean number of plants present per pot [2, 12]: 6.0 | Mean number fecal pellets per pot [2, 13]: 106 | Mean number of damaged seeds per pot [2, 13]: 23.8 | Mean number of dead slugs per pot [2, 13]: 1.3 | Mean number of plants present per pot [2, 13]: 8.8 | Mean number fecal pellets per pot [2, 14]: 114 | Mean number of damaged seeds per pot [2, 14]: 24.3 | Mean number of dead slugs per pot [2, 14]: 1.5 | Mean number of plants present per pot [2, 14]: 9.0 | damaged seeds relative to the untreated control ([2]; Example 1, 10 ml/kg, after 3, 7 and 14 days): significantly less damaged seeds | protection / slug controlling effect (conclusion) ([2]; Example 1, winter wheat seed treatment, dosages tested): no sufficient protection to the plants | number of plants present relative to untreated ([3]; Example 2): no significantly different results | phytotoxic effect on the seeds ([3]; Example 2): phytotoxic effect on the seeds | result of seed treatment against slugs (conclusion) ([3]; Example 2): does not give the desired effect | percentage of damaged seeds after 7 days ([3]; Example 2, 10 ml formulated per kg seed): 31% | Mean number of damaged seeds per pot [3, 19]: 2.8 | Mean number of dead slugs per pot [3, 19]: 0 | Mean number of damaged seeds per pot [3, 20]: 6.0 | Mean number of dead slugs per pot [3, 20]: 0.3 | Mean number of damaged seeds per pot [3, 21]: 12.5 | Mean number of dead slugs per pot [3, 21]: 0.8 | number of damaged seeds relative to the untreated seed ([3]; Example 2): significant reduction in the number of damaged seeds | Mean number of fecal pellets per pot ([3]; dosage 10 ml, 2 days): 11 | Mean number of plants present per pot ([3]; dosage 10 ml, 2 days): 0.3 | Mean number of fecal pellets per pot ([3]; dosage 10 ml, 3 days): 30 | Mean number of plants present per pot ([3]; dosage 10 ml, 3 days): 1.3 | Mean number of fecal pellets per pot ([3]; dosage 10 ml, 7 days): 69 | Mean number of plants present per pot ([3]; dosage 10 ml, 7 days): 4.5 | number of utilizable plants after 7 days ([3]; dosage 10 ml, 7 days): 2.0
